Measured values from article PMC3466204 (PLoS ONE, 2012).
“And” between values parts separate entries of the source, which are not always exact repeats. Equal entries are not always repeated. Ends that are not written are not given here.

Tests used:
Lactococcus lactis HP = assay: Agarose-based assay of cell-free supernatants of S29X producing strains
Procedure, shortened: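 Deferred antagonism in 1% agarose underlay (10 mM sodium phosphate, pH 7.4) seeded with mid-log indicator bacteria at 2×10^7 CFU/mL. Cell-free supernatant or purified peptide placed in 4.6 mm wells, held 3 h at 30 °C (L. lactis), 37 °C (Gram-positives) or RT (Gram-negatives). Plates were then overlaid with GM17 or LB agarose and incubated overnight.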

S. mitis UCC5000 = assay: Broth MIC, Gram positive; format: cell-based, Streptococcus mitis; settings: broth microtitre, BSA pre-treated plates, 10^5 cfu ml^−1, 2-fold dilutions from 10 µM, 16 h 37°C, purified peptide, mean of triplicate assays
Procedure: (§1) Minimum inhibitory concentration determinations for Gram positive organisms were carried out in triplicate in microtitre plates (Sarstedt). 96 well microtitre plates were pre-treated with bovine serum albumin (BSA) prior to addition of the peptides. Briefly, to each well of the microtitre plate 200 µL of phosphate buffered saline (PBS) containing 1% (w/v) bovine serum albumin (PBS/BSA) was added and incubated at 37°C for 30 min. The wells were washed with 200 µL PBS and allowed to dry. Target strains were grown overnight in the appropriate conditions and medium, subcultured into fresh broth and allowed to grow to an OD600 of ∼0.5, diluted to a final concentration of 10^5 cfu ml^−1 in a volume of 0.2 ml. Wild type nisin and nisin mutant peptides were adjusted to a 10 µM (S. mitis, B. cereus), 7.5 µM (L. monocytogenes), 5 µM (hVISA) 2.5 µM (MRSA, E. durans), or 500 nM (L. lactis strains) starting concentration and 2-fold serial dilutions of each peptide were added to the target strain.

B. cereus DPC 6088 = assay: Broth MIC, Gram positive; format: cell-based, Bacillus cereus; settings: broth microtitre, BSA pre-treated plates, 10^5 cfu ml^−1, 2-fold dilutions from 10 µM, 16 h 37°C, purified peptide, mean of triplicate assays
Procedure: as §1

B. cereus DPC 6089 = assay: Broth MIC, Gram positive; format: cell-based, Bacillus cereus; settings: broth microtitre, BSA pre-treated plates, 10^5 cfu ml^−1, 2-fold dilutions from 10 µM, 16 h 37°C, purified peptide, mean of triplicate assays
Procedure: as §1

C. sakazakii DPC 6440 [1] = assay: Broth MIC, Gram negative; format: cell-based, Cronobacter sakazakii; settings: cells washed in 10 mM SPB pH 7.4, 2×10^5 CFU/mL, 2 h RT with peptide, then double strength LB, RT overnight, mean of triplicate assays
Procedure: Minimum inhibitory concentration determinations for Gram negative strains were carried out in triplicate in 96 well microtitre plates. Briefly, bacteria (E. coli, C. sakazakii and Salmonella) grown to mid-logarithmic phase were harvested by centrifugation, washed with 10 mM SPB at pH 7.4, and diluted to 2×10^5 colony-forming units (CFU)/mL in SPB. Nisin and nisin derivative peptides were resuspended in sterile HPLC water and 50 µL aliquots were added to wells containing 50 µL of 2×10^5 CFU of bacteria. Plates were incubated at RT for two hours with agitation. Double strength Luria–Bertani (LB) broth (100 µL) was added and the plates were incubated at RT overnight, the MIC was taken as the lowest concentration at which growth was inhibited.

C. sakazakii DPC 6440 [2] = assay: Kill curve analysis; format: cell-based, Cronobacter sakazakii; settings: 33 mg/L purified peptide, 2×10^5 cfu ml^−1, 37°C for 1 hour
Procedure: (§2) Using purified peptide in each case, 10 mM sodium phosphate buffer washed C. sakazakii, E. coli and Salmonella strains were diluted to a final concentration of 2×10^5 cfu ml^−1 and were exposed to nisin A, S29G and S29A at a concentration of 33 mg/L. Following incubation at 37°C for 1 hour, bacterial growth was monitored through plate counts.

E. coli = assay: Kill curve analysis; format: cell-based; settings: 33 mg/L purified peptide, 2×10^5 cfu ml^−1, 37°C for 1 hour
Procedure: as §2

S. typhimurium UK-1 = assay: Kill curve analysis; format: cell-based, Salmonella enterica serovar Typhimurium; settings: 33 mg/L purified peptide, 2×10^5 cfu ml^−1, 37°C for 1 hour
Procedure: as §2

L. monocytogenes LO28 = assay: Deferred antagonism assay of producing strains; format: cell-based; settings: L. monocytogenes LO28, data not shown
Procedure: (§3) Deferred antagonism assays were performed by replicating strains on GM17 agar plates and allowing them to grow overnight before overlaying with either GM17/BHI/TSB-YE/MH agar (0.75% w/v agar) seeded with the appropriate indicator strain. For higher throughput screening of the S29X bank, deferred antagonism assays were performed by replicating strains using a 96 pin replicator (Boekel) or spotting 5 µl of a fresh overnight culture on GM17 agar plates and allowing them to grow overnight. Following overnight growth the strains were subjected to UV radiation for 30 minutes prior to overlaying with either GM17/BHI/TS/MH agar (0.75% w/v agar) seeded with the appropriate indicator.

S. aureus RF122 = assay: Deferred antagonism assay of producing strains; format: cell-based
Procedure: as §3

S. aureus SA113 = assay: Deferred antagonism assay of producing strains; format: cell-based; settings: zone of inhibition around producer colony
Procedure: as §3

## S29G: bioengineered nisin A derivative with a serine to glycine change at position 29 (ITSISLCTPGCKTGALMGCNMKTATCHCGIHVSK; thioether (positions not given here); not fully specified (residues 2, 5, 33, bridges); UniProt P13068 24-57, looked up, variant S29G)
Lactococcus lactis HP; agarose (1%) GM17 assay, 10 µl cell-free supernatant of overnight producing culture in 4.6 mm wells, L. lactis HP, 30°C
  Zone Diameter (mm): 15.4±0.5 mm
Lactococcus lactis HP; agarose assay of supernatants against L. lactis HP, wild type serine = 100
  % difference (zone relative to wild type): 101%
S. mitis UCC5000
  MIC: 8.38 mg/L and 2.5 µM
B. cereus DPC 6088
  MIC: 4.19 mg/L and 1.25 µM
B. cereus DPC 6089
  MIC: 4.19 mg/L and 1.25 µM
C. sakazakii DPC 6440 [1]
  MIC: 6.28 mg/L and 1.875 µM
C. sakazakii DPC 6440 [2]
  Killing compared with nisin A (plate counts): greater activity than wildtype nisin A
E. coli
  Killing compared with nisin A (plate counts): greater activity than wildtype nisin A
S. typhimurium UK-1
  Killing compared with nisin A (plate counts): greater activity than wildtype nisin A
L. monocytogenes LO28
  Bioactivity of producer relative to nisin A producer: comparable to that of nisin A
S. aureus RF122
  Bioactivity of producer relative to nisin A producer: increases the bioactivity
S. aureus SA113
  Bioactivity of producer relative to nisin A producer: enhanced activity
